The source of these data is patent publication US20230250060A1 (IFM Due, Inc., priority 2022, published 2023).

The target in the experiment is T1, STING (Homo sapiens, UniProt Q86WV6, G230A/H232R/R293Q/R71H).
T1 construct: host or cells: THP1-Dual KO-IFNAR2 cells
T1 sequence (Q86WV6 whole entry R71H/G230A/H232R/R293Q): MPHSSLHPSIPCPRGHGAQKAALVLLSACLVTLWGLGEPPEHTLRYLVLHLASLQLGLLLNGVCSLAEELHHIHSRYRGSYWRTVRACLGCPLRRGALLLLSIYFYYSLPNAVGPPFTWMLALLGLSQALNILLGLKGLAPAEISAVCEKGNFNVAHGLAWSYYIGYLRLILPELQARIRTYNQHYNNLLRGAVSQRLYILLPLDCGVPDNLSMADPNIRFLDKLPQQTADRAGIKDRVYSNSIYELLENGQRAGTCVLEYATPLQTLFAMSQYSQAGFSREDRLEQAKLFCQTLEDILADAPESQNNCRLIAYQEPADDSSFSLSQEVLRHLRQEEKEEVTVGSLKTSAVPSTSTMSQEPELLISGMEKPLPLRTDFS
Nature of the experiment: STING reporter assay (luciferase) in THP1-Dual KO-IFNAR2 cells stimulated with 2′3′cGAMP. It is filed as cell-based. To be noted: 2′3′cGAMP 15 μM final, 24 h, luciferase reporter activity, read-out: Pharmaron, THP1_IFNAR2 STING 24 h Luci Normalized: GeoMean EC50. Put shortly:
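THP1-Dual KO-IFNAR2 cells (2×10E6 cells/mL) exposed to compounds at 0.0017-100 μM final and stimulated with 2′3′cGAMP (15 μM final) delivered via Lipofectamine 2000. After 24 h at 37° C., secreted luciferase in supernatant read with QUANTI-Luc Plus; EC50 derived from luminescence.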
(Reporter assays use an easily measured gene product as a stand-in for the process of interest.)
Usually EC50 stands for the midpoint of the concentration-response curve. For the compound `O=C(Nc1c[nH]c2ccc(OCC[C@@H]3C[C@@H]4CN(CC(F)(F)F)C[C@@H]4C3)cc12)C1CC2(CC2)C1` [Compound 222, N-(5-{2-[(3aR,5R,6aS)-2-(2,2,2-trifluoroethyl)octahydrocyclopenta[c]pyrrol-5-yl]ethoxy}-1H-indol-3-yl)spiro[2.3]hexane-5-carboxamide], the EC50 fell in the range of 200 to 1000 nM.
In the case of `O=C(Nc1c[nH]c2ccc(OCC[C@@H]3C[C@@H]4CN(CC(F)(F)F)C[C@@H]4C3)cc12)C1CC12CCC2` (stereo partly drawn) [Compound 223, N-(5-(2-((3aR,5R,6aS)-2-(2,2,2-trifluoroethyl)octahydrocyclopenta [c]pyrrol-5-yl)ethoxy)-1H-indol-3-yl)spiro[2.3]hexane-1-carboxamide], the EC50 lay in the range of 200 to 1000 nM.
Take `O=C(Nc1c[nH]c2ccc(OCC[C@@H]3C[C@@H]4CN(CC(F)(F)F)C[C@@H]4C3)cc12)c1ccccc1` [Compound 224, N-(5-(2-((3aR,5r,6aS)-2-(2,2,2-trifluoroethyl)octahydrocyclopenta[c]pyrrol-5-yl)ethoxy)-1H-indol-3-yl)benzamide]: the EC50 is 200 to 1000 nM.
Then `O=C(Nc1c[nH]c2ccc(O[C@H]3C[C@H](c4ccc(C(F)(F)F)cc4)C3)cc12)c1ccncc1` [Compound 225, N-{5-[(1R,3R)-3-[4-(trifluoromethyl)phenyl]cyclobutoxy]-1H-indol-3-yl}pyridine-4-carboxamide], with 200 to 1000 nM; and `O=C(Nc1c[nH]c2ccc(O[C@H]3C[C@H](c4ccc(C(F)(F)F)cc4)C3)cc12)c1ccn[nH]1` [Compound 226, N-{5-[(1R,3R)-3-[4-(trifluoromethyl)phenyl]cyclobutoxy]-1H-indol-3-yl}-1H-pyrazole-5-carboxamide], with 40 to 200 nM.
The figure for `O=C(Nc1c[nH]c2ccc(O[C@H]3C[C@H](c4ccc(C(F)(F)F)cc4)C3)cc12)c1cccnc1` [Compound 227, N-{5-[(1R,3R)-3-[4-(trifluoromethyl)phenyl]cyclobutoxy]-1H-indol-3-yl}pyridine-3-carboxamide] is 200 to 1000 nM; for `O=C(Nc1c[nH]c2ccc(O[C@H]3C[C@H](c4ccc(C(F)(F)F)cc4)C3)cc12)c1ccccn1` [Compound 228, N-{5-[(1R,3R)-3-[4-(trifluoromethyl)phenyl]cyclobutoxy]-1H-indol-3-yl}pyridine-2-carboxamide] it is 200 to 1000 nM; for `O=C(Nc1c[nH]c2ccc(O[C@H]3C[C@H](c4ccc(C(F)(F)F)cc4)C3)cc12)C1CC2(CC2)C1` [Compound 229, N-{5-[(1R,3R)-3-[4-(trifluoromethyl)phenyl]cyclobutoxy]-1H-indol-3-yl}spiro[2.3]hexane-5-carboxamide] it is 40 to 200 nM.
Then `O=C(Nc1c[nH]c2ccc(O[C@H]3C[C@H](c4ccc(C(F)(F)F)cc4)C3)cc12)C1CC12CCC2` (stereo partly drawn) [Compound 230, N-{5-[(1R,3R)-3-[4-(trifluoromethyl)phenyl]cyclobutoxy]-1H-indol-3-yl}spiro[2.3]hexane-1-carboxamide], with 40 to 200 nM; and `O=C(Nc1c[nH]c2ccc(O[C@H]3C[C@H](c4ccc(C(F)(F)F)cc4)C3)cc12)c1ncccc1F` [Compound 231, 3-fluoro-N-{5-[(1R,3R)-3-[4-(trifluoromethyl)phenyl]cyclobutoxy]-1H-indol-3-yl}pyridine-2-carboxamide], with 40 to 200 nM.
As for `O=C(Nc1c[nH]c2ccc(O[C@H]3C[C@H](c4ccc(C(F)(F)F)cc4)C3)cc12)c1nccs1` [Compound 232, N-{5-[(1R,3R)-3-[4-(trifluoromethyl)phenyl]cyclobutoxy]-1H-indol-3-yl}-1,3-thiazole-2-carboxamide], the EC50 lay in the range of 40 to 200 nM.
Turning to `Cc1oncc1C(=O)Nc1c[nH]c2ccc(O[C@H]3C[C@H](c4ccc(C(F)(F)F)cc4)C3)cc12` [Compound 233, 5-methyl-N-{5-[(1R,3R)-3-[4-(trifluoromethyl)phenyl]cyclobutoxy]-1H-indol-3-yl}-1,2-oxazole-4-carboxamide], the EC50 was 5000 to 100000 nM.
Take `Cc1noc(C)c1C(=O)Nc1c[nH]c2ccc(O[C@H]3C[C@H](c4ccc(C(F)(F)F)cc4)C3)cc12` [Compound 234, 3,5-dimethyl-N-{5-[(1R,3R)-3-[4-(trifluoromethyl)phenyl]cyclobutoxy]-1H-indol-3-yl}-1,2-oxazole-4-carboxamide]: the EC50 was 200 to 1000 nM.
The figure for `O=C(Nc1c[nH]c2ccc(O[C@H]3C[C@H](c4ccc(C(F)(F)F)cc4)C3)cc12)c1cncs1` [Compound 235, N-{5-[(1R,3R)-3-[4-(trifluoromethyl)phenyl]cyclobutoxy]-1H-indol-3-yl}-1,3-thiazole-5-carboxamide] is 200 to 1000 nM; for `O=C(Nc1c[nH]c2ccc(OCc3ccc(C(F)(F)F)cc3)cc12)C1CC12CCC2` (stereo not shown) [Compound 236, N-(5-{[4-(trifluoromethyl)phenyl]methoxy}-1H-indol-3-yl)spiro[2.3]hexane-1-carboxamide] it is 40 to 200 nM.
The figure for `Cn1nccc1C(=O)Nc1c[nH]c2ccc(O[C@H]3C[C@H](c4ccc(C(F)(F)F)cc4)C3)cc12` [Compound 237, 1-methyl-N-{5-[(1R,3R)-3-[4-(trifluoromethyl)phenyl]cyclobutoxy]-1H-indol-3-yl}-1H-pyrazole-5-carboxamide] is 200 to 1000 nM; for `CC12CC(C(=O)Nc3c[nH]c4ccc(O[C@H]5C[C@H](c6ccc(C(F)(F)F)cc6)C5)cc34)(C1)C2` [Compound 238, 3-methyl-N-{5-[(1R,3R)-3-[4-(trifluoromethyl)phenyl]cyclobutoxy]-1H-indol-3-yl}bicyclo[1.1.1]pentane-1-carboxamide] it is 40 to 200 nM.
For the compound `O=C(Nc1c[nH]c2ccc(O[C@H]3C[C@H](c4ccc(C(F)(F)F)cc4)C3)cc12)c1cscn1` [Compound 239, N-(5-((1R,3R)-3-(4-(trifluoromethyl)phenyl)cyclobutoxy)-1H-indol-3-yl)thiazole-4-carboxamide], the EC50 lay in the range of 40 to 200 nM.
The figure for `Cn1cc(C(=O)Nc2c[nH]c3ccc(OCc4ccc(C(F)(F)F)cc4)cc23)nn1` [Compound 240, 1-methyl-N-(5-((4-(trifluoromethyl)benzyl)oxy)-1H-indol-3-yl)-1H-1,2,3-triazole-4-carboxamide] is 1000 to 5000 nM; for `Cn1cc(C(=O)Nc2c[nH]c3ccc(O[C@H]4C[C@@H](c5ccc(C(F)(F)F)cc5)C4)cc23)nn1` [Compound 241] it is 200 to 1000 nM; for `Cn1cc(C(=O)Nc2c[nH]c3ccc(OCC[C@@H]4C[C@@H]5CN(CC(F)(F)F)C[C@@H]5C4)cc23)nn1` [Compound 242, N-(5-{2-[(3aR,5R,6aS)-2-(2,2,2-trifluoroethyl)octahydrocyclopenta[c]pyrrol-5-yl]ethoxy}-1H-indol-3-yl)-1-methyl-1H-1,2,3-triazole-4-carboxamide] it is 200 to 1000 nM.
On to `Cn1cc(C(=O)Nc2c[nH]c3ccc(CCOc4ccc(C(F)(F)F)cc4)cc23)nn1` [Compound 243, 1-methyl-N-(5-(2-(4-(trifluoromethyl)phenoxy)ethyl)-1H-indol-3-yl)-1H-1,2,3-triazole-4-carboxamide], for which the EC50 lay in the range of 200 to 1000 nM.
The figure for `Cn1cc(C(=O)Nc2c[nH]c3ccc(OCCc4ccc(C(F)(F)F)cc4)cc23)nn1` [Compound 244, 1-methyl-N-(5-(4-(trifluoromethyl)phenethoxy)-1H-indol-3-yl)-1H-1,2,3-triazole-4-carboxamide] is 40 to 200 nM; for `O=C(Nc1c[nH]c2ccc(OCCc3ccc(C(F)(F)F)cc3)cc12)c1cn(-c2cnc(N3CCC(F)(F)CC3)c(F)c2)nn1` [Compound 245, 1-(6-(4,4-difluoropiperidin-1-yl)-5-fluoropyridin-3-yl)-N-(5-(4-(trifluoromethyl)phenethoxy)-1H-indol-3-yl)-1H-1,2,3-triazole-4-carboxamide] it is 200 to 1000 nM.
Then `O=C(Nc1c[nH]c2ccc(Oc3ccccc3)cc12)c1cnn(Cc2ccc(C(F)(F)F)cc2)c1` [Compound 246, N-(5-phenoxy-1H-indol-3-yl)-1-(4-(trifluoromethyl)benzyl)-1H-pyrazole-4-carboxamide], with 40 to 200 nM.
